Measurements from ChEMBL document CHEMBL4308841, “Synthesis, in vitro antiproliferative activity, and kinase inhibitory effects of pyrazole-containing diarylureas and diarylamides” (Eur J Med Chem, 2018).

What follows are compounds tested on SR (assay: Growth inhibition of human SR cells assessed as cell growth at 0.1 uM incubated for 48 hrs by sulforhodamine B assay relative to control). Conditions: read-out: Activity.
Assay type: functional

SMILES | growth at 0.1 µM
O=C(Nc1cccc(-n2cc(-c3ccncc3)c(-c3cc(O)cc(Cl)c3)n2)c1)Nc1ccc(Cl)c(Cl)c1 | 90%

What follows are compounds tested on K562 (assay: Growth inhibition of human K562 cells assessed as cell growth at 100 uM incubated for 48 hrs by sulforhodamine B assay relative to control). Conditions: K562, 48 h, read-out: Activity.
Assay type: functional

SMILES | growth at 100 µM
O=C(Nc1cccc(-n2cc(-c3ccncc3)c(-c3cc(O)cc(Cl)c3)n2)c1)Nc1ccc(Cl)c(Cl)c1 | 5%

What follows are compounds tested on COLO 205 (assay: Growth inhibition of human COLO205 cells assessed as cell growth at 0.1 uM incubated for 48 hrs by sulforhodamine B assay relative to control). Conditions: COLO 205, 48 h, read-out: Activity.
Assay type: functional

SMILES | growth at 0.1 µM
O=C(Nc1cccc(-n2cc(-c3ccncc3)c(-c3cc(O)cc(Cl)c3)n2)c1)Nc1ccc(Cl)c(Cl)c1 | 103%

What follows are compounds tested on RPMI-8226 (assay: Growth inhibition of human RPMI8226 cells assessed as cell growth at 0.01 uM incubated for 48 hrs by sulforhodamine B assay relative to control). Conditions: RPMI-8226, 48 h, read-out: Activity.
Assay type: functional

SMILES | growth at 0.01 µM
O=C(Nc1cccc(-n2cc(-c3ccncc3)c(-c3cc(O)cc(Cl)c3)n2)c1)Nc1ccc(Cl)c(Cl)c1 | 104%

What follows are compounds tested on ACHN (assay: Growth inhibition of human ACHN cells assessed as cell growth at 100 uM incubated for 48 hrs by sulforhodamine B assay relative to control). Conditions: read-out: Activity.
Assay type: functional

SMILES | growth at 100 µM
O=C(Nc1cccc(-n2cc(-c3ccncc3)c(-c3cc(O)cc(Cl)c3)n2)c1)Nc1ccc(Cl)c(Cl)c1 | -33%

These compounds were tested on SW-620 (assay: Growth inhibition of human SW620 cells assessed as cell growth at 0.1 uM incubated for 48 hrs by sulforhodamine B assay relative to control). Conditions: SW-620, 48 h, read-out: Activity.
Assay type: functional

SMILES | growth at 0.1 µM
O=C(Nc1cccc(-n2cc(-c3ccncc3)c(-c3cc(O)cc(Cl)c3)n2)c1)Nc1ccc(Cl)c(Cl)c1 | 99%

What follows are compounds tested on NCI-H226 (assay: Growth inhibition of human NCI-H226 cells assessed as cell growth at 1 uM incubated for 48 hrs by sulforhodamine B assay relative to control). Conditions: NCI-H226, 48 h, read-out: Activity.
Assay type: functional

SMILES | growth at 1 µM
O=C(Nc1cccc(-n2cc(-c3ccncc3)c(-c3cc(O)cc(Cl)c3)n2)c1)Nc1ccc(Cl)c(Cl)c1 | 96%

What follows are compounds tested on SK-OV-3 (assay: Growth inhibition of human SKOV3 cells incubated for 48 hrs by sulforhodamine B assay). Conditions: SK-OV-3, 48 h, read-out: GI50.
Assay type: functional, cell-based

SMILES | GI50
O=C(Nc1cccc(-n2cc(-c3ccncc3)c(-c3cc(O)cc(Cl)c3)n2)c1)Nc1ccc(Cl)c(Cl)c1 | 3.42 µM

Same assay, conditions: SK-OV-3, 48 h, read-out: LC50 (the source's name)

SMILES | CC50
O=C(Nc1cccc(-n2cc(-c3ccncc3)c(-c3cc(O)cc(Cl)c3)n2)c1)Nc1ccc(Cl)c(Cl)c1 | > 100 µM

Same assay, conditions: SK-OV-3, 48 h, read-out: TGI

SMILES | TGI
O=C(Nc1cccc(-n2cc(-c3ccncc3)c(-c3cc(O)cc(Cl)c3)n2)c1)Nc1ccc(Cl)c(Cl)c1 | 94.3 µM

Same assay, conditions: SK-OV-3, 48 h, read-out: pGI50 (converted)

SMILES | GI50
O=C(Nc1cccc(-n2cc(-c3ccncc3)c(-c3cc(O)cc(Cl)c3)n2)c1)Nc1ccc(Cl)c(Cl)c1 | 3.39 µM

Same assay, conditions: SK-OV-3, 48 h, read-out: pLC50 (the source's name) (converted)

SMILES | CC50
O=C(Nc1cccc(-n2cc(-c3ccncc3)c(-c3cc(O)cc(Cl)c3)n2)c1)Nc1ccc(Cl)c(Cl)c1 | > 100 µM

Same assay, conditions: SK-OV-3, 48 h, read-out: pTGI (converted)

SMILES | TGI
O=C(Nc1cccc(-n2cc(-c3ccncc3)c(-c3cc(O)cc(Cl)c3)n2)c1)Nc1ccc(Cl)c(Cl)c1 | 9.33 µM

These compounds were tested on LOX IMVI (assay: Growth inhibition of human LOXIMVI cells assessed as cell growth at 100 uM incubated for 48 hrs by sulforhodamine B assay relative to control). Conditions: read-out: Activity.
Assay type: functional

SMILES | growth at 100 µM
O=C(Nc1cccc(-n2cc(-c3ccncc3)c(-c3cc(O)cc(Cl)c3)n2)c1)Nc1ccc(Cl)c(Cl)c1 | -38%

The compounds below were run on MCF7 (assay: Growth inhibition of human MCF7 cells assessed as cell growth at 100 uM incubated for 48 hrs by sulforhodamine B assay relative to control). Conditions: MCF7, 48 h, read-out: Activity.
Assay type: functional

SMILES | growth at 100 µM
O=C(Nc1cccc(-n2cc(-c3ccncc3)c(-c3cc(O)cc(Cl)c3)n2)c1)Nc1ccc(Cl)c(Cl)c1 | -2%

These compounds were tested on T47D (assay: Growth inhibition of human T47D cells assessed as cell growth at 1 uM incubated for 48 hrs by sulforhodamine B assay relative to control). Conditions: read-out: Activity.
Assay type: functional

SMILES | growth at 1 µM
O=C(Nc1cccc(-n2cc(-c3ccncc3)c(-c3cc(O)cc(Cl)c3)n2)c1)Nc1ccc(Cl)c(Cl)c1 | 96%

What follows are compounds tested on MDA-MB-468 (assay: Growth inhibition of human MDA-MB-468 cells incubated for 48 hrs by sulforhodamine B assay). Conditions: MDA-MB-468, 48 h.
Assay type: functional, cell-based

SMILES | IC50
O=C(Nc1cccc(-n2cc(-c3ccncc3)c(-c3cc(O)cc(Cl)c3)n2)c1)Nc1ccc(Cl)c(Cl)c1 | 1.71 µM

Same assay, conditions: MDA-MB-468, 48 h, read-out: GI50

SMILES | GI50
O=C(Nc1cccc(-n2cc(-c3ccncc3)c(-c3cc(O)cc(Cl)c3)n2)c1)Nc1ccc(Cl)c(Cl)c1 | 1.7 µM

Same assay, conditions: MDA-MB-468, 48 h, read-out: LC50 (the source's name)

SMILES | CC50
O=C(Nc1cccc(-n2cc(-c3ccncc3)c(-c3cc(O)cc(Cl)c3)n2)c1)Nc1ccc(Cl)c(Cl)c1 | > 100 µM

Same assay, conditions: MDA-MB-468, 48 h, read-out: TGI

SMILES | TGI
O=C(Nc1cccc(-n2cc(-c3ccncc3)c(-c3cc(O)cc(Cl)c3)n2)c1)Nc1ccc(Cl)c(Cl)c1 | 70.9 µM

Same assay, conditions: MDA-MB-468, 48 h, read-out: pGI50 (converted)

SMILES | GI50
O=C(Nc1cccc(-n2cc(-c3ccncc3)c(-c3cc(O)cc(Cl)c3)n2)c1)Nc1ccc(Cl)c(Cl)c1 | 1.7 µM

Same assay, conditions: MDA-MB-468, 48 h, read-out: pLC50 (the source's name) (converted)

SMILES | CC50
O=C(Nc1cccc(-n2cc(-c3ccncc3)c(-c3cc(O)cc(Cl)c3)n2)c1)Nc1ccc(Cl)c(Cl)c1 | > 100 µM

Same assay, conditions: MDA-MB-468, 48 h, read-out: pTGI (converted)

SMILES | TGI
O=C(Nc1cccc(-n2cc(-c3ccncc3)c(-c3cc(O)cc(Cl)c3)n2)c1)Nc1ccc(Cl)c(Cl)c1 | 7.08 µM
